Assay results as given in ChEMBL document CHEMBL1201862, “PubChem BioAssay data set” (2004).
Calls of active or inactive are those of the source. Rule as the data show it: actives have a measured IC50 and inactives only a lower limit.

How the values were obtained:
Format in all cases: functional
[1] = molecular target: T1, Sentrin-specific protease 7 (Homo sapiens, UniProt Q9BQF6); test: SENP7 protease inhibitors, SAR follow-up, biochemical, luminescence (AID 504497)
T1 sequence (Q9BQF6 whole entry): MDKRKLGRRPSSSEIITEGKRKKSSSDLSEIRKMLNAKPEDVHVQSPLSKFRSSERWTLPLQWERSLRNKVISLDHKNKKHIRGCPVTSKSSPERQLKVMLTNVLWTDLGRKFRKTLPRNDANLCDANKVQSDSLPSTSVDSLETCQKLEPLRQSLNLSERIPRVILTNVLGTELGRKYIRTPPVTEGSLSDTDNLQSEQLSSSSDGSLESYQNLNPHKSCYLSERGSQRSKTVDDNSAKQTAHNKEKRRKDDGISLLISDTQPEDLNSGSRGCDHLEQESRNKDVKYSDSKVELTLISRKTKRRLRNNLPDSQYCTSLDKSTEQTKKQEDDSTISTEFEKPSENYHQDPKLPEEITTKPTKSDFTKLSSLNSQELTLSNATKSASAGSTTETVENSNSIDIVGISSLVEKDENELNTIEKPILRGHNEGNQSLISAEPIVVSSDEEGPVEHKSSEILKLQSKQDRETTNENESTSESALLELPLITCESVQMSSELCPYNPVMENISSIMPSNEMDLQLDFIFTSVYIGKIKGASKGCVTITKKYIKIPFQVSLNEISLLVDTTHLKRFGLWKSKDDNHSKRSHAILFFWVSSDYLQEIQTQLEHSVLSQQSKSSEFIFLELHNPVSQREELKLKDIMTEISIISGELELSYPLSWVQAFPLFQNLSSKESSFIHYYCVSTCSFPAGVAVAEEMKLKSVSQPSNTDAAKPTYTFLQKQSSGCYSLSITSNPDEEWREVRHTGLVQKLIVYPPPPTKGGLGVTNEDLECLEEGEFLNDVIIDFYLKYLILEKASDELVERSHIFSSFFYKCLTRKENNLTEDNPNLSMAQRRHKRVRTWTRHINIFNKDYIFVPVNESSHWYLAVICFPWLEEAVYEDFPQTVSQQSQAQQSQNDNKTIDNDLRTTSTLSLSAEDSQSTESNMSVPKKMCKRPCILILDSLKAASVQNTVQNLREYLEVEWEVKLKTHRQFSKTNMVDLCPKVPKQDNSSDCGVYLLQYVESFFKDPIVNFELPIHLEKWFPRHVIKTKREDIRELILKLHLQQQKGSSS

[2] = molecular target: T2, Sentrin-specific protease 8 (Homo sapiens, UniProt Q96LD8); test: SENP8 protease inhibitors, SAR follow-up, biochemical, luminescence (AID 504501)
T2 sequence (Q96LD8 whole entry): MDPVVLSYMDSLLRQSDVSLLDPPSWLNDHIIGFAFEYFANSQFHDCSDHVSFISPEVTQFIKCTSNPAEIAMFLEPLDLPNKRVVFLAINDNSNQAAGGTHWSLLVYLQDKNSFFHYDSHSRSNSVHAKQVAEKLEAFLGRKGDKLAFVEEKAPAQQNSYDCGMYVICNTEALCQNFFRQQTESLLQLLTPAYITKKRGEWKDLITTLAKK

[3] = molecular target: T3, Sentrin-specific protease 6 (Homo sapiens, UniProt Q9GZR1); test: SAR Analysis of small molecule inhibitors of Sentrin-specific protease 6 (SENP6) using a Luminescent assay. [Related pubchem assays (depositor defined):AID2582, AID2599]
T3 sequence (Q9GZR1 whole entry): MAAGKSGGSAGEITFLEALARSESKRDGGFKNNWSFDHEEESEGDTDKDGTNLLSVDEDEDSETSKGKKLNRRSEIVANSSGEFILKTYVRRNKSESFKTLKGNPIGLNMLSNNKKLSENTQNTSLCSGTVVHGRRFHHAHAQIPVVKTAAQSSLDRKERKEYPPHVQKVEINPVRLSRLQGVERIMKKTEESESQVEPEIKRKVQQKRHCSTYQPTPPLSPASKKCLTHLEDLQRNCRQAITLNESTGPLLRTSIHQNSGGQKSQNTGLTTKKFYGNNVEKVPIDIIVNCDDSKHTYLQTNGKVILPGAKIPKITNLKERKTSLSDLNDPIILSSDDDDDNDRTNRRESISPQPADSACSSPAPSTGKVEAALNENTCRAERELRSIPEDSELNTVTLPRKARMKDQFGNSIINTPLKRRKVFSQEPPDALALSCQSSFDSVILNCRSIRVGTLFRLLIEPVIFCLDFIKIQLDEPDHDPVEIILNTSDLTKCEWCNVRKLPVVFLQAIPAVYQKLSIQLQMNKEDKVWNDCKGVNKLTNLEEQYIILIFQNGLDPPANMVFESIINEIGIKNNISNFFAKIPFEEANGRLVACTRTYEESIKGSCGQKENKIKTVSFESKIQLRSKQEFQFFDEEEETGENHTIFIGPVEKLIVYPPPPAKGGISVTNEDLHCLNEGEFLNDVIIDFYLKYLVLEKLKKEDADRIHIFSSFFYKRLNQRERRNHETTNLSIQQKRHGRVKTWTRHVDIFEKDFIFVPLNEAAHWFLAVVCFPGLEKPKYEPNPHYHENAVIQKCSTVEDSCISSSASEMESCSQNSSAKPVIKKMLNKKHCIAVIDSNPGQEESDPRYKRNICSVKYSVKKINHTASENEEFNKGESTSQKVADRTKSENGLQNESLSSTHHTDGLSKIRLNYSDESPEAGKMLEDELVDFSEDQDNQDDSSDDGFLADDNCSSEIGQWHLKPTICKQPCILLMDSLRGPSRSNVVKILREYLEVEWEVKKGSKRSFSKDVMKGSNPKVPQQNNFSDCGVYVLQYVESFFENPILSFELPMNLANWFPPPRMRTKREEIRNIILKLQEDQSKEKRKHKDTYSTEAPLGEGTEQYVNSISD

[4] = molecular target: T2, Sentrin-specific protease 8; test: SENP8 protease inhibitors, SAR follow-up, biochemical, luminescence, set 2 (AID 588601)
[5] = molecular target: T4, Caspase-3 (Homo sapiens, UniProt P42574); test: caspase-3 inhibitors as off-family protease, SAR follow-up, selectivity assay for SENP protease inhibitor project, biochemical, luminescence, set 2 (AID 588599)
T4 sequence (P42574 whole entry): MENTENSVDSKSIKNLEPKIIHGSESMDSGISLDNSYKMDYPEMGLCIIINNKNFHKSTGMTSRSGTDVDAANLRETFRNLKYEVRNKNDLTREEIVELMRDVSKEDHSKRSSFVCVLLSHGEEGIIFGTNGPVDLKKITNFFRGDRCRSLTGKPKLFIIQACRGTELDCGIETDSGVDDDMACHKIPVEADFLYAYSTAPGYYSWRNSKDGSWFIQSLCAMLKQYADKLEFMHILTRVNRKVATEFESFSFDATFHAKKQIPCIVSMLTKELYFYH

[6] = molecular target: T4, Caspase-3; test: SAR Analysis of small molecule inhibitors of Sentrin-specific proteases (SENPs) using a Caspase-3 Selectivity assay. [Related pubchem assays (depositor defined):AID2540, AID2599, AID434973, AID489001]
[7] = molecular target: T3, Sentrin-specific protease 6; test: SENP6 protease inhibitors, SAR follow-up, biochemical, luminescence, set 2 (AID 588598)
[8] = molecular target: T1, Sentrin-specific protease 7; test: SENP7 protease inhibitors, SAR follow-up, biochemical, luminescence, set 2 (AID 588600)

IC50 [1]: 14 µM (active)
IC50 [3]: 45 µM (active)
IC50 [5]: 33.5 µM (active)
IC50 [6]: 47 µM (active)
IC50 [7]: 13.5 µM (active)
IC50 [8]: 12.2 µM (active)
SMILES: COc1cccc(-c2nc(/C=C/c3ccccc3)no2)c1
IC50 [2]: 52 µM (active)
IC50 [4]: 12.2 µM (active)
